Assay results reported in publication PMC6832141, “Synthesis and Cyclooxygenase Inhibition of Sulfonamide-Substituted (Dihydro)Pyrrolo[3,2,1-hi]indoles and Their Potential Prodrugs” (Molecules, 2019).
Where two headings read alike, the source gives them in different places. One block for each molecule: values may come before it.

Legend:
ovine COX-1 = target: T1, ovine COX-1 (Ovis aries, UniProt P05979); experiment: COX Fluorescent Inhibitor Screening Assay Kit (Cayman 700100), COX-1; type: biochemical; settings: values marked ** : compounds were screened at a concentration of 100 µM
T1 construct: purchased Cayman Chemical 700100
T1 sequence (P05979 25-600): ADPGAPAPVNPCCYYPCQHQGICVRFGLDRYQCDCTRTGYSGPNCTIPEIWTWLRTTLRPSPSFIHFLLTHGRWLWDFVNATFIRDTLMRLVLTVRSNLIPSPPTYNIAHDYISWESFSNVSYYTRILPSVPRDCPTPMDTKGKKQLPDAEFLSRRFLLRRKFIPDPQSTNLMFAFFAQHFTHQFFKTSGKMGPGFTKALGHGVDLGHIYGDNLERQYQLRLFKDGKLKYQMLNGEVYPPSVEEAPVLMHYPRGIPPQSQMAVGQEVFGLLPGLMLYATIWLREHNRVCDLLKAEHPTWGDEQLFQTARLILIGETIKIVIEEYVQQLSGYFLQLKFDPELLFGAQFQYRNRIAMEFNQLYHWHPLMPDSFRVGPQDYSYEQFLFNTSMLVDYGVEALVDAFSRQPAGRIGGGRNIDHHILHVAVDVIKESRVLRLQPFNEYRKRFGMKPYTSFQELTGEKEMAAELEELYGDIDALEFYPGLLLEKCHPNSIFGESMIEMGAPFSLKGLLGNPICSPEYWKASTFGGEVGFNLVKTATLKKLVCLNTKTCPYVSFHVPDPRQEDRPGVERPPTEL

human COX-2 = target: T2, human COX-2 (Homo sapiens, UniProt P35354); experiment: COX Fluorescent Inhibitor Screening Assay Kit (Cayman 700100), COX-2; type: biochemical; settings: for SI (selectivity index): SI = IC50 (COX-1)/IC50 (COX-2); for IC50: human COX-2, values marked ** : compounds were screened at a concentration of 100 µM
T2 construct: purchased Cayman Chemical 700100
T2 sequence (P35354 18-604): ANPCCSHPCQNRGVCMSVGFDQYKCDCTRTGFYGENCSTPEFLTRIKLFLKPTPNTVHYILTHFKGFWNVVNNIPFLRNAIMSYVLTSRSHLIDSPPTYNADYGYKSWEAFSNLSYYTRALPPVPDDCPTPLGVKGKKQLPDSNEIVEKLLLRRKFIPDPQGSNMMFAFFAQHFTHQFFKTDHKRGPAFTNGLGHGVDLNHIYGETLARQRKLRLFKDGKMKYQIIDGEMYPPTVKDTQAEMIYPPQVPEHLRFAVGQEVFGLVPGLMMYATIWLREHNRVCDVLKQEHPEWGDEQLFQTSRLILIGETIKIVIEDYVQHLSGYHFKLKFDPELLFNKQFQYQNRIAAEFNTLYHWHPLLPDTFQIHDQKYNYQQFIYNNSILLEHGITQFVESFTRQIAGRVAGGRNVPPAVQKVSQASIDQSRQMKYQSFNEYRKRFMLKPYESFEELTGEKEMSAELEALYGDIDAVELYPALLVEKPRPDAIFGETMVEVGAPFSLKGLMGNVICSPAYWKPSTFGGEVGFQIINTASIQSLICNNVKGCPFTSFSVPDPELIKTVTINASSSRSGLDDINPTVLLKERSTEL

[1] = Lipophilicity, logD7.4 by HPLC method (Donovan and Pescatore); type: physicochemical; settings: HPLC column ODP-50 4B (Shodex Asahipak 50 × 4.6 mm); pH 7.4, HPLC system 2, MeOH/PBS gradient
Experimental: The lipophilicity of all synthesized compounds was determined as logD7.4HPLC value (Table 1) using an HPLC method originally described by Donovan and Pescatore.
Column chromatography was performed using silica gel (mesh size 40–63 µm). Thin-layer chromatography (TLC) was performed on silica gel F-254 aluminum plates and visualized using UV (254 nm/366 nm). Analytical HPLC analysis was carried out with the following systems: (system 1) Agilent 1200 HPLC (Santa Clara, CA, USA; pump G1311A, autosampler G1329A, column oven G1316A, degasser G1322A, UV detector G1315D, γ detector Gabi Star (Raytest), Luna C18 column (Phenomenex, 250 × 4.6 mm), flow rate = 1 mL/min, isocratic eluent (MeCN/0.1% TFA in H2O 70/30 (v/v)); (system 2) Agilent 1100 HPLC (Santa Clara, CA, USA; binary pump G1312A, autosampler G1313A, column oven G1316A, degasser G1322A, UV detector G1314A, γ detector Gabi Star (Raytest, Straubenhardt, Germany); column ODP-50 4B (Shodex Asahipak 50 × 4.6 mm); eluent: MeOH/PBS (10 mM, pH 7.4) gradient t0 min 30/70 - t25 min 95/5 - t27 min 95/5 - t28 min 30/70 - t40 min 30/70, flow rate = 0.6 mL/min; (system 3) waters UPLC I-Class (Milford, MA, USA; binary gradient pump BSM, autosampler FTN, column manager CM, and diode array detector PDAeλ coupled to Waters Xevo TQ-S), column Aquity UPLC® BEH C18 column (waters, 100 × 2.1 mm, 1.7 µm, 130 Å), eluent: (A): 0.1% acetic acid in MeCN/MeOH 1/1/(B): 0.1% acetic acid in H2O; flow rate 0.4 mL/min), gradient: t0 min 45/55 - t0.5 min 45/55 - t5.5 min 95/5 - t7.0 min 95/5 - t8.0 min 45/55 – t8.5 min 45/55; (system 4) column (Kinetex C-18 (Phenomenex 50 × 2.1 mm, 1.7 µm, 100 Å), Shimadzu Nexera X2 UHPLC system (Kyoto, Japan; degasser DGU-20A3R and DGU-20A5R, pump LC-30AD, autosampler SIL-30AC, column oven CTO-20AC with two column switching valves FCV-14AH, diode array detector SPD-M30A, γ detector Gabi Star (Raytest, Straubenhardt, Germany), communication bus module CBM-20A), eluent: (A): MeCN, (B): 0.1% trifluoroacetic acid in H2O; flow rate 0.5 mL/min), gradient: t0 min 25/75 - t0.3 min 25/75 - t4.0 min 75/25 - t4.5 min 95/5 - t5.5 min 95/5 - t6.0 min 25/75 – t7.5 min 25/75. The products were monitored by an UV detector at 254 nm and purity of all compounds exceeded 95% as determined by analytical HPLC analysis (system 1 or system 3), unless otherwise stated. Semi-preparative HPLC was performed using the following system: column (C-18 Jupiter Proteo (Phenomenex 250 × 21.1 mm, 4 µm, 90 Å), Shimadzu prominence modular HPLC system (Kyoto, Japan; degasser DGU-20A5R, 2× pump LC-20AR, autosampler SIL-20AC HT, column oven CTO-20AC with column switching valve, diode array detector SPD-M20A, fluorescence detector RF-20A, and fraction collector FRC-10A, communication bus module CBM-20A), isocratic eluent 0.1% TFA in MeCN/0.1% TFA in H2O 70/30, flow rate = 10 mL/min.
The logD7.4HPLC value was determined as previously reported by us utilizing an HPLC method originally described by Donovan and Pescatore[18]. […]

[2] = parameters: method as in doi:10.1002/slct.201601618, PMID 12064545; settings: reference substances for the HPLC logD method; cited from earlier work
[3] = cited from earlier work
[4] = rat plasma, parecoxib leading to valdecoxib, cited from earlier work
hCOX-2 = settings: read-out: IC50 hCOX-2; cited from earlier work

- IC50 (ovine COX-1): > 100000 nM
- SI (selectivity index) (human COX-2): >1887
- IC50 (human COX-2): 53 nM
- chromatographic logD [1]: 4.59
- melting point: 218 to 220 °C
Structure (SMILES): NS(=O)(=O)c1ccc(-c2c(-c3ccccc3)c3cccc4ccn2c43)cc1 [2a, 1-Phenyl-2-[4-(sulfamoyl)phenyl]pyrrolo[3,2,1-hi]indole]

- IC50 (ovine COX-1): > 100000 nM
- SI (selectivity index) (human COX-2): >1136
- IC50 (human COX-2): 88 nM
- chromatographic logD [1]: 4.89
- melting point: 270 to 273 °C
Structure (SMILES): NS(=O)(=O)c1ccc(-c2c(-c3ccc(Cl)cc3)c3cccc4ccn2c43)cc1 [2c, 1-(4-Chlorophenyl)-2-[4-(sulfamoyl)phenyl]pyrrolo[3,2,1-hi]indole]

- IC50 (ovine COX-1): > 100000 nM
- SI (selectivity index) (human COX-2): >1124
- IC50 (human COX-2): 89 nM
- chromatographic logD [1]: 4.64
- melting point: 258 to 259 °C
Structure (SMILES): NS(=O)(=O)c1ccc(-c2c(-c3ccc(F)cc3)c3cccc4ccn2c43)cc1 [2d, 1-(4-Fluorophenyl)-2-[4-(sulfamoyl)phenyl]pyrrolo[3,2,1-hi]indole]

Further lines, the molecule ahead of its results:

Structure (SMILES): Cc1ccc(-c2c(-c3ccc(S(N)(=O)=O)cc3)n3ccc4cccc2c43)cc1 [2b, 2-[4-(Sulfamoyl)phenyl]-1-(p-tolyl)pyrrolo[3,2,1-hi]indole]
- IC50 (ovine COX-1): > 100000 nM
- SI (selectivity index) (human COX-2): >1087
- IC50 (human COX-2): 92 nM
- chromatographic logD [1]: 4.73
- melting point: 233 to 235 °C

Structure (SMILES): C[C@]12CCC(=O)C=C1CC[C@@H]1[C@@H]2[C@@H](O)C[C@@]2(C)[C@H]1CC[C@]2(O)C(=O)CO [Hydrocortisone]
- logD7.4 of HPLC references [2]: 1.65

Structure (SMILES): CCC(=O)NS(=O)(=O)c1ccc(-c2c(-c3ccccc3)noc2C)cc1 [Parecoxib sodium]
- water solubility [3]: > 50 mg/mL

Structure (SMILES): CCC(=O)NS(=O)(=O)c1ccc(-c2c(-c3ccccc3)noc2C)cc1 [parecoxib]
- elimination half-life T1/2 ([4]; ref 19): 8.1 min
- elimination half-life T1/2 ([4]; ref 23): 41.4 min
- IC50 (hCOX-2): 20000 nM
